According to patent publication US11168087B2, “Substituted imidazo[1,2-b]pyridazines, substituted imidazo[1,5-b]pyridazines, related compounds, and their use in the treatment of medical disorders” (BIAL—R&D Investments, S.A., priority 2016, dated 2021):

Target: T1, glucocerebrosidase (Gcase) (Homo sapiens, UniProt P04062)
T1 construct: micellar solution containing 10 nM GCase and 100 nM saposin C
T1 sequence (P04062 40-536): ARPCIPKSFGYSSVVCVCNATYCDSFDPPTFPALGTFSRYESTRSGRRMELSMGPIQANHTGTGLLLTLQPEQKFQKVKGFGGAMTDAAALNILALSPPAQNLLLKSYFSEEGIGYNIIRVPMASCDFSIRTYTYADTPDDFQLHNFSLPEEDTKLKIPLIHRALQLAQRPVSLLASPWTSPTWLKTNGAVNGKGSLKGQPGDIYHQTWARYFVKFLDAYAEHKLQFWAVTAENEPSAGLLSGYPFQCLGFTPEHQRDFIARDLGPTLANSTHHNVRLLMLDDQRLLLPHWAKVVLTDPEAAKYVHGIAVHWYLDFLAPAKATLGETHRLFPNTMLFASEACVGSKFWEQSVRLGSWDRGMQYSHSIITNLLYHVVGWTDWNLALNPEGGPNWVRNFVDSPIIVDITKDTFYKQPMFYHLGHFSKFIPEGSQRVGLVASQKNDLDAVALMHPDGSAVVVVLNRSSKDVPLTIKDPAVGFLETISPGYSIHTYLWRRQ
Assay: Glucocerebrosidase (Gcase) activation assay, 4-methylumbelliferyl-beta-D-glucopyranoside substrate, with saposin C
Assay type: biochemical
Conditions: 0.25 h; for activation at 0.1 µM: read-out: Percent Gcase Activation 0.1 μM Test Compound; for activation at 1 µM: read-out: Percent Gcase Activation 1 μM Test Compound
Method: The ability of exemplary compounds to activate glucocerebrosidase (Gcase) was measured.
A 484 μL aliquot of a 1.0 mg/mL solution of phosphatidylserine (PS) (Sigma P7769) in chloroform was evaporated under a stream of nitrogen for 1 hour. The lipid film was dissolved over 4 minutes of vigorous vortexing in 40 mL of 176 mM K2HPO4/50 mM citric acid (pH 4.7) containing 7.5 μL of triton X-100, resulting in a mixed micellar preparation with a composition of 0.32 mM triton and 0.37 mol % PS. 4-Methylumbelliferyl-beta-D-glucopyranoside (ACROS-337025000) was dissolved in the micellar solution to a final concentration of 2 mM for use as the reaction substrate.
Test compounds were diluted to the desired concentrations with dimethylsulfoxide (DMSO) from 10 mM stocks, and 0.41 μL of the DMSO compound mixture was added to 100 μL of micellar solution containing 10 nM GCase and 100 nM saposin C (Enzo ALX-201-262-C050). Pre-incubation was allowed to occur for 30 minutes at room temperature, after which the reaction was initiated by combining 25 μL of substrate solution with 25 μL of compound/GCase/saposin mixture. The reaction proceeded for 15 minutes at room temperature and was stopped by adding 150 μL of 1M glycine, pH 12.5. The endpoint of the reaction was monitored by measuring fluorescence intensity (excitation: 365 nm; emission: 440 nm) on a SpectraMax i3 instrument (Molecular Devices). Test compounds were screened at 1.0 and 0.1 μM final concentration, and subsequent 8-point dose response curves were obtained using 3-fold dilutions from a maximum final concentration of 5 μM.
The symbol “+” indicates less than 5% Gcase activation; the symbol “++” indicates Gcase activation in the range of 5% up to 20%; and the symbol “+++” indicates Gcase activation greater than 20%.

activation at 0.1 µM [%] | activation at 1 µM [%] | SMILES
> 20 | > 20 | Cc1cc(-c2cccc(F)c2)nn2c(C(=O)NC(C3CC3)C(F)(F)F)cnc12 (centres unmarked)
> 20 | > 20 | Cc1cc(-c2ccc3ocnc3c2)nn2c(C(=O)N[C@H](C3CC3)C(F)(F)F)cnc12
5 to 20 | > 20 | CCC(NC(=O)c1nsc2c(C)cc(C)nc12)c1ccccc1 (centres unmarked) [5,7-Dimethyl-N-(1-phenylpropyl)isothiazolo[4,5-b]pyridine-3-carboxamide]
< 5 | 5 to 20 | O=C(NC1CCCc2ccccc21)c1cnc2ccc(Cl)nn12 (centres unmarked)
5 to 20 | > 20 | C#Cc1ccc(NC(=O)c2cnc3c(C)cc(C)nn23)cc1
< 5 | 5 to 20 | COc1cccc(-c2cc(C)c3snc(C(=O)N[C@@H](C)C4CC4)c3n2)n1
5 to 20 | > 20 | Cc1cc(-c2ccc(F)cc2C#N)nn2c(C(=O)NC(C)C(F)(F)F)cnc12 (centres unmarked)
> 20 | > 20 | Cc1cc(-c2cccnc2)nc2c(C(=O)NC(C3CC3)C(F)(F)F)csc12 (centres unmarked)
5 to 20 | > 20 | Cc1cc(-c2cccc3ocnc23)nn2c(C(=O)NC(C3CC3)C(F)(F)F)cnc12 (centres unmarked)
> 20 | > 20 | Cc1cc(-c2ccc(C#N)o2)nn2c(C(=O)N[C@@H](C3CC3)C(F)(F)F)cnc12
< 5 | > 20 | C#Cc1ccc(NC(=O)c2ncc3c(C)cc(C)nn23)cc1
5 to 20 | > 20 | Cc1cc(-c2cc(F)ccc2C#N)nn2c(C(=O)N[C@@H](C)C(F)(F)F)cnc12 [(S)-6-(2-Cyano-5-fluorophenyl)-8-methyl-N-(1,1,1-trifluoropropan-2-yl)imidazo[1,2-b]pyridazine-3-carboxamide]
5 to 20 | > 20 | Cc1cc(-c2ccc(F)cc2)nn2c(C(=O)N[C@@H](C)C3CC3)ncc12
< 5 | < 5 | CCC(NC(=O)c1cnc2ccc(Cl)nn12)c1ccccc1 (centres unmarked)
5 to 20 | > 20 | Cc1cc(N2CC(C(C)C)OC2=O)nn2c(C(=O)N[C@H](C3CC3)C(F)(F)F)cnc12 (stereo partly drawn) [N—((R)-1-Cyclopropyl-2,2,2-trifluoroethyl)-6-(5-isopropyl-2-oxooxazolidin-3-yl)-8-methylimidazo[1,2-b]pyridazine-3-carboxamide]
5 to 20 | > 20 | Cc1cc(-c2ccc(F)cc2C#N)nn2c(C(=O)N[C@@H](C)C(F)(F)F)cnc12
< 5 | > 20 | Cc1ccc(-c2cc(C)c3ncc(C(=O)N[C@@H](C4CC4)C(F)(F)F)n3n2)cn1 [(S)-6-(6-Methylpyridin-3-yl)-N-(1-cyclopropyl-2,2,2-trifluoroethyl)-8-methylimidazo[1,2-b]pyridazine-3-carboxamide]
> 20 | > 20 | Cc1cc(-c2ccc3ocnc3c2)nn2c(C(=O)NC(C3CC3)C(F)(F)F)cnc12 (centres unmarked)
< 5 | 5 to 20 | Cc1cc2ncc(C(=O)NC3CCCc4ccccc43)n2nc1Cl (centres unmarked)
< 5 | > 20 | Cc1cncc(-c2cc(C)c3ncc(C(=O)N[C@@H](C4CC4)C(F)(F)F)n3n2)c1
5 to 20 | > 20 | Cc1cc(-c2ccns2)nn2c(C(=O)NC(C3CC3)C(F)(F)F)cnc12 (centres unmarked)
> 20 | > 20 | Cc1cc(-c2cccc(F)c2)nn2c(C(=O)N[C@@H](C3CC3)C(F)(F)F)ncc12 [(S)—N-(1-Cyclopropyl-2,2,2-trifluoroethyl)-2-(3-fluorophenyl)-4-methylimidazo[1,5-b]pyridazine-7-carboxamide]
> 20 | > 20 | Cc1cc(-c2sccc2C#N)nn2c(C(=O)N[C@@H](C3CC3)C(F)(F)F)cnc12

activation at 0.1 µM [%] | activation at 1 µM [%] | SMILES
5 to 20 | > 20 | Cc1cc(-c2ccc(F)cc2C#N)nn2c(C(=O)N[C@@H](C)C3CC3)cnc12
> 20 | > 20 | Cc1cc(N2CCCC(F)(F)C2)nn2c(C(=O)N[C@H](C3CC3)C(F)(F)F)cnc12
5 to 20 | > 20 | COc1cncc(-c2cc(C)c3ncc(C(=O)N[C@@H](C4CC4)C(F)(F)F)n3n2)c1
< 5 | > 20 | Cc1cc(C)c2cnc(C(=O)NC(C3CC3)C(F)(F)F)n2n1 (centres unmarked)
> 20 | > 20 | Cc1cc(-c2cc(C)c3ncc(C(=O)N[C@H](C4CC4)C(F)(F)F)n3n2)sn1
5 to 20 | > 20 | Cc1cc(N2CCN(C(C)C)C2=O)nn2c(C(=O)NC(C3CC3)C(F)(F)F)cnc12 (centres unmarked)
< 5 | 5 to 20 | Cc1cc(C)c2cnc(C(=O)N[C@@H](C)C3CC3)n2n1
5 to 20 | > 20 | Cc1cc(-c2ccon2)nn2c(C(=O)NC(C3CC3)C(F)(F)F)cnc12 (centres unmarked)
> 20 | > 20 | Cc1cc(-c2ccc(F)o2)nn2c(C(=O)NC(C3CC3)C(F)(F)F)cnc12 (centres unmarked)
5 to 20 | > 20 | Cc1cc(N2CCN(C(C)C)C2=O)nn2c(C(=O)N[C@@H](C3CC3)C(F)(F)F)ncc12 [(S)—N-(1-Cyclopropyl-2,2,2-trifluoroethyl)-2-(3-isopropyl-2-oxoimidazolidin-1-yl)-4-methylimidazo[1,5-b]pyridazine-7-carboxamide]
5 to 20 | > 20 | Cc1cc(-c2cncc(Cl)c2)nn2c(C(=O)N[C@@H](C3CC3)C(F)(F)F)ncc12 [(S)-2-(5-Chloropyridin-3-yl)-N-(1-cyclopropyl-2,2,2-trifluoroethyl)-4-methylimidazo[1,5-b]pyridazine-7-carboxamide]
5 to 20 | > 20 | CCCCCO[C@H]1CC[C@H](NC(=O)c2noc3c(C)cc(C)nc23)CC1 [5,7-Dimethyl-N-((1R,4R)-4-(pentyloxy)cyclohexyl)isoxazolo[4,5-b]pyridine-3-carboxamide]
< 5 | > 20 | Cc1cc(N2CC(C(C)C)OC2=O)nn2c(C(=O)N[C@@H](C3CC3)C(F)(F)F)cnc12 (stereo partly drawn) [N—((S)-1-Cyclopropyl-2,2,2-trifluoroethyl)-6-(5-isopropyl-2-oxooxazolidin-3-yl)-8-methylimidazo[1,2-b]pyridazine-3-carboxamide]
< 5 | > 20 | C#CC(C)(C)NC(=O)c1cnc2c(C)cc(-c3ccns3)nn12
5 to 20 | > 20 | Cc1cc(C)c2ncc(C(=O)NC3(C)CCCc4ccccc43)n2n1 (centres unmarked)
< 5 | 5 to 20 | CCCCCO[C@H]1CC[C@H](NC(=O)c2cnc3ccc(Cl)nn23)CC1
> 20 | > 20 | Cc1cc(-c2cccc(F)c2)nn2c(C(=O)NC(C)(C)C3CC3)ncc12
5 to 20 | > 20 | CCC(NC(=O)c1noc2c(C)cc(C)nc12)c1ccccc1 (centres unmarked) [5,7-Dimethyl-N-(1-phenylpropyl)isoxazolo[4,5-b]pyridine-3-carboxamide]
< 5 | > 20 | Cc1cc(-c2cccnc2)nn2c(C(=O)NC(C3CC3)C(F)(F)F)cnc12 (centres unmarked)
> 20 | > 20 | Cc1cc(-c2cccc(C(N)=O)c2)nc2c(C(=O)NC(C3CC3)C(F)(F)F)csc12 (centres unmarked)
< 5 | > 20 | Cc1cc(C)c2ncc(C(=O)NC(C3CC3)C(F)(F)F)n2n1 (centres unmarked)
5 to 20 | > 20 | Cc1cc(-c2ccc(F)cc2C#N)nn2c(C(=O)N[C@@H](C3CC3)C(F)(F)F)ncc12 [(S)-2-(2-Cyano-4-fluorophenyl)-N-(1-cyclopropyl-2,2,2-trifluoroethyl)-4-methylimidazo[1,5-b]pyridazine-7-carboxamide]
> 20 | > 20 | Cc1cc(-c2ccc3ocnc3c2)nn2c(C(=O)N[C@@H](C3CC3)C(F)(F)F)cnc12
